According to publication PMC9000871, “Rhodamine 101 Conjugates of Triterpenoic Amides Are of Comparable Cytotoxicity as Their Rhodamine B Analogs” (Molecules, 2022):

What was measured:
[1] = tested on: A375 (melanoma); experiment: SRB cytotoxicity assay, A375; type: cell-based, human; settings: Homo sapiens, mean ± standard mean error
Excerpt: (§1) The cell lines were obtained from Department of Oncology (Martin-Luther-University Halle Wittenberg; they were bought from ATCC; A 375 (CRL-1619), HT29 (HTB-38), MCF7 (HTM-22), A2780 (HTP-77), FaDu (HTP-43), NIH 3T3 (CRL-1658), HEK-293 (CRL-1573)). Cultures were maintained as monolayers in RPMI 1640 medium with L-glutamine (Capricorn Scientific GmbH, Ebsdorfergrund, Germany) supplemented with 10% heat inactivated fetal bovine serum (Sigma-Aldrich Chemie GmbH, Steinheim, Germany) and penicillin/streptomycin (1%, Capricorn Scientific GmbH, Ebsdorfergrund, Germany) at 37 °C in a humidified atmosphere with 5% CO2. The cytotoxicity of the compounds was evaluated using the sulforhodamine-B (Kiton-Red S, ABCR) micro culture colorimetric assay using confluent cells in 96-well plates with the seeding of the cells on day 0 applying appropriate cell densities to prevent confluence of the cells during the period of the experiment. On day 1, the cells were treated with six different concentrations (1, 3, 7, 12, 20, and 30 μM); thereby, the final concentration of DMSO was always <0.5%, generally regarded as non-toxic to the cells. On day 4, the supernatant medium was discarded; the cells were fixed with 10% trichloroacetic acid. After another day at 4 °C, the cells were washed in a strip washer and dyed with the SRB solution (100 μL, 0.4% in 1% acetic acid) for about 20 min to be followed by washing of the plates (four times, 1% acetic acid) and air-drying overnight. Furthermore, tris base solution (200 μL, 10 mM) was added to each well and absorbance was measured at λ = 570 nm employing a reader (96 wells, Tecan Spectra, Crailsheim, Germany). The EC50 values were averaged from three independent experiments performed each in triplicate calculated from semi logarithmic dose response curves applying a non-linear four-parameter Hills-slope equation (GraphPad Prism5; variables top and bottom were set to 100 and 0, respectively).

[2] = tested on: HT29 (colon adenocarcinoma); experiment: SRB cytotoxicity assay, HT29; type: cell-based, human; settings: Homo sapiens, mean ± standard mean error
Excerpt: as §1

[3] = tested on: MCF-7 (breast adenocarcinoma); experiment: SRB cytotoxicity assay, MCF-7; type: cell-based; settings: Homo sapiens, MCF7, 72 h of treatment, mean ± standard mean error
Excerpt: as §1

[4] = tested on: A2780 (ovarian carcinoma); experiment: SRB cytotoxicity assay, A2780; type: cell-based; settings: Homo sapiens, 72 h of treatment, mean ± standard mean error
Excerpt: as §1

[5] = tested on: FaDu (hypopharyngeal carcinoma); experiment: SRB cytotoxicity assay, FaDu; type: cell-based; settings: Homo sapiens, 72 h of treatment, mean ± standard mean error
Excerpt: as §1

[6] = tested on: NIH 3T3 (fibroblasts), non-malignant; experiment: SRB cytotoxicity assay, NIH 3T3; type: cell-based; settings: Mus musculus, mean ± standard mean error
Excerpt: as §1

[7] = tested on: human tumor cell lines (A375, HT29, MCF-7, A2780, FaDu); experiment: SRB cytotoxicity assay, statements across the cell line panel; type: cell-based; settings: span over all cell lines tested, cut-off of the assay 30 µM
Excerpt: as §1, with “On day 1, the cells were treated with six different concentrations (1, 3, 7, 12, 20, and 30 μM); thereby, the final concentration of DMSO was always <0.5%, generally regarded as non-toxic to the cells. On day 4, the supernatant medium was discarded; the cells were fixed with 10% trichloroacetic acid. After another day at 4 °C, the cells were washed in a strip washer and dyed with the SRB solution (100 μL, 0.4% in 1% acetic acid) for about 20 min to be followed by washing of the plates (four times, 1% acetic acid) and air-drying overnight.” left out

[8] = tested on: HeLa (cervical cancer); experiment: SRB cytotoxicity assay, HeLa; type: cell-based; settings: Homo sapiens, 72 h of treatment, mean ± standard mean error
[9] = tested on: HEK293 (human embryonic kidney), non-malignant; experiment: SRB cytotoxicity assay, HEK293; type: cell-based; settings: 72 h of treatment, mean ± standard mean error
Excerpt: as §1

[10] = NIH3T3, 72 h, 72 h of treatment

Row | SMILES | EC50 ([1]; A-375, 72 h of treatment) [µM] | EC50 ([2]; HT-29, 72 h of treatment) [µM] | EC50 [3] [µM] | EC50 [4] [µM] | EC50 [5] [µM] | EC50 ([6]; NIH3T3, 72 h of treatment) [µM] | EC50 ([1]; A-375, 72 h, 72 h of treatment) [µM] | EC50 ([2]; HT-29, 72 h, 72 h of treatment) [µM] | EC50 [6, 10] [µM] | EC50 values across the cell lines [7] | EC50 [8] [µM] | EC50 [9] [µM]
1 | CC(=O)O[C@H]1CC[C@@]2(C)C(CC[C@]3(C)C2CC=C2C4CC(C)(C)CC[C@]4(C(=O)O)CC[C@]23C)C1(C)C (stereo partly drawn) [compound 2, 3β-Acetyloxy-olean-12-en-oic Acid] | 13 ± 1.1 | 20.5 ± 1.7 | 12.9 ± 1.9 | 9.4 ± 0.5 | 11.8 ± 0.9 | 17.5 ± 1.5 |  |  |  |  |  | 
2 | CC(=O)O[C@H]1CC[C@@]2(C)C(CC[C@]3(C)C2CC=C2C4[C@@H](C)[C@H](C)CC[C@]4(C(=O)O)CC[C@]23C)C1(C)C (stereo partly drawn) [compound 3, 3β-Acetyloxy-urs-12-en-oic Acid] |  |  | 12.1 ± 1.2 | 8.3 ± 0.9 | 10.7 ± 0.8 |  | 11.4 ± 1.4 | 17.3 ± 1.5 | 16.4 ± 1.7 |  |  | 
3 | CC(=O)O[C@H]1CC[C@@]2(C)C(CC[C@]3(C)C2CCC2C4[C@H](C(C)=O)CC[C@]4(C(=O)O)CC[C@]23C)C1(C)C (stereo partly drawn) [compound 4, 3β-Acetyloxy-20-oxo-30-norlupan-28-oic Acid] |  |  | > 30 | > 30 | > 30 |  | > 30 | > 30 | > 30 | not cytotoxic at all within the limits of the assay |  | 
4 | CC(=O)O[C@H]1CC[C@@]2(C)C(CC[C@]3(C)C2CC=C2C4CC(C)(C)CC[C@]4(C(=O)N4CCCN(C(=O)c5ccccc5C5=c6cc7c8c(c6Oc6c5cc5c9c6CCCN9CCC5)CCC[N+]=8CCC7)CC4)CC[C@]23C)C1(C)C (stereo partly shown) [compound 26] |  |  | 0.12 ± 0.03 | 0.07 ± 0.03 |  |  | 0.07 ± 0.01 | 0.13 ± 0.03 | 0.26 ± 0.05 |  | 0.1 ± 0.05 | 0.05 ± 0.01
5 | CC(=O)O[C@H]1CC[C@@]2(C)C(CC[C@]3(C)C2CC=C2C4[C@@H](C)[C@H](C)CC[C@]4(C(=O)N4CCCN(C(=O)c5ccccc5C5=c6cc7c8c(c6Oc6c5cc5c9c6CCCN9CCC5)CCC[N+]=8CCC7)CC4)CC[C@]23C)C1(C)C (stereo partly shown) [compound 27] |  |  | 0.08 ± 0.03 | 0.05 ± 0.02 |  |  | 0.06 ± 0.04 | 0.08 ± 0.02 | 0.24 ± 0.03 |  | 0.09 ± 0.06 | 0.04 ± 0.01
6 | CC(=O)O[C@H]1CC[C@@]2(C)C(CC[C@]3(C)C2CCC2C4[C@H](C(C)=O)CC[C@]4(C(=O)N4CCCN(C(=O)c5ccccc5C5=c6cc7c8c(c6Oc6c5cc5c9c6CCCN9CCC5)CCC[N+]=8CCC7)CC4)CC[C@]23C)C1(C)C (stereo partly shown) [compound 28] |  |  | 0.2 ± 0.05 | 0.17 ± 0.04 |  |  | 0.2 ± 0.03 | 0.35 ± 0.05 | 0.39 ± 0.05 |  | 0.31 ± 0.15 | 0.12 ± 0.03
